Assay results: patent US20120234256A1, “[…] DEVICE” (priority 2009, published 2012)

Experiments:
[1] = tested on: persistent and neuropathic pain; settings: animal studies; cited from earlier work
human neuropathic pain = settings: in the clinic; cited from earlier work
[2] = tested on: rats with formalin injection into one hindpaw; assay: Mechanical conflict device (MCD) test, inflammatory pain from formalin injection into one hindpaw; format: in vivo, rat; settings: formalin 0.2%, s.c. into one hindpaw, morphine 2.5 mg/kg i.p.
From the text: (§1) The mechanical conflict device can be used in various methods. With reference now to FIGS. 3-7, the MCD 10 of the present technology can be used to measure the response of a laboratory animal 17, such as a rat, to noxious mechanical stimuli. In this test, exit or escape from an aversive environment to a preferred environment is deterred by a noxious mechanical stimulus represented by the pins 60 on a raised pin platform 80, as shown in FIG. 6. In an initial MCD 10 training period, the pins 60 are lowered below the alley floor 50 and the laboratory animal 17 is placed into the holding compartment 20. […] The holding compartment 20 and the alley compartment 30 can be illuminated with normal room lighting. In some embodiments, the holding compartment 20 and/or the alley compartment 30 are supplemented by a light source 220, for example, a high-intensity, white-light LED array positioned above the alley compartment 30, as shown in FIGS. 3-6. At that time, panel walls 110 and 120 can be raised to allow the laboratory animal 17 to learn that it can exit from the mildly aversive stimuli (the light 220) in the holding compartment 20 and alley compartment 30 and move across the floor 50, passing into the more comfortable compensatory compartment 40 where it is generally dim and provides the laboratory animal 17 with a generally more rewarding area. […]

CCI rats = assay: Mechanical conflict device (MCD) test, neuropathic pain from chronic constriction injury (CCI) of the left sciatic nerve; format: in vivo, rat; settings: pregabalin 10 and 30 mg/kg, i.p.
From the text: as §1

COc1ccccc1CN(C[C@@H](Cc1c[nH]c2ccccc12)NC(=O)CN1CCC(N2CCCCC2)CC1)C(C)=O [LY 303870]
Relief of persistent and neuropathic pain [1]: did relieve persistent and neuropathic pain | Analgesia against human neuropathic pain (human neuropathic pain): failed

CN1CC[C@]23c4c5ccc(O)c4O[C@H]2[C@@H](O)C=C[C@H]3[C@H]1C5 [morphine]
Increased latency to exit produced by formalin injection ([2]; FIG. 14): not reduced | Increased time spent on the stimulus array produced by formalin injection ([2]; FIG. 15): attenuated

CC(C)C[C@H](CN)CC(=O)O [pregabalin]
Latency to exit (light chamber) (CCI rats; FIG. 12): modulated | Time spent on the stimulus array (CCI rats; FIG. 13): not modulated
